# Test results published in US9113629B2, “4-amino-6-(4-substituted-phenyl)-picolinates and 6-amino-2-(4-substituted-phenyl)-pyrimidine-4-carboxylates and their use as herbicides” (DOW AGROSCIENCES LLC, priority 2013, dated 2015).
# Test system: Key Grass and Sedge Weeds as well as Grass Crops
# Assay: Post-emergent Test II herbicidal activity (Table 6)
# Type: in vivo
# Details: Triticum aestivum, post-emergence, 336 h, TRZSS (wheat), application rate 70 g ai/ha, read-out: Visual Growth Reduction (%) 14 Days After Application, TRZSS
# How it was run: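 Test species were raised 7–21 d under greenhouse conditions until reaching the first or second true leaf, sprayed with formulated compound at 187 L/ha, and kept subirrigated to avoid wash-off. Fourteen days later, damage was rated visually on a 0–100% scale against untreated plants.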
row,SMILES,pest or weed control at 70 g/ha [%]
1,"COC(=O)c1nc(-c2cc(F)c(Br)cc2F)cc(N)c1Cl [Compound 127, methyl 4-amino-6-(4-bromo-2,5-difluorophenyl)-3-chloropicolinate]",60 to 74

# Same assay, conditions: Triticum aestivum, post-emergence, 336 h, TRZSS (wheat), application rate 140 g ai/ha, read-out: Visual Growth Reduction (%) 14 Days After Application, TRZSS
row,SMILES,pest or weed control at 140 g/ha [%]
1,"COC(=O)c1nc(-c2cc(F)c(Br)cc2F)cc(N)c1Cl [Compound 127, methyl 4-amino-6-(4-bromo-2,5-difluorophenyl)-3-chloropicolinate]",75 to 84

# Same assay, conditions: post-emergence, 336 h, CYPES: yellow nutsedge (Cyperus esculentus), application rate 70 g ai/ha, read-out: Visual Growth Reduction (%) 14 Days After Application, CYPES
row,SMILES,pest or weed control at 70 g/ha [%]
1,"COC(=O)c1nc(-c2cc(F)c(Br)cc2F)cc(N)c1Cl [Compound 127, methyl 4-amino-6-(4-bromo-2,5-difluorophenyl)-3-chloropicolinate]",95 to 100

# Same assay, conditions: post-emergence, 336 h, CYPES: yellow nutsedge (Cyperus esculentus), application rate 140 g ai/ha, read-out: Visual Growth Reduction (%) 14 Days After Application, CYPES
row,SMILES,pest or weed control at 140 g/ha [%]
1,"COC(=O)c1nc(-c2cc(F)c(Br)cc2F)cc(N)c1Cl [Compound 127, methyl 4-amino-6-(4-bromo-2,5-difluorophenyl)-3-chloropicolinate]",95 to 100

# Same assay, conditions: post-emergence, 336 h, DIGSA: crabgrass (Digitaria sanguinalis), application rate 70 g ai/ha, read-out: Visual Growth Reduction (%) 14 Days After Application, DIGSA
row,SMILES,pest or weed control at 70 g/ha [%]
1,"COC(=O)c1nc(-c2cc(F)c(Br)cc2F)cc(N)c1Cl [Compound 127, methyl 4-amino-6-(4-bromo-2,5-difluorophenyl)-3-chloropicolinate]",85 to 94

# Same assay, conditions: post-emergence, 336 h, DIGSA: crabgrass (Digitaria sanguinalis), application rate 140 g ai/ha, read-out: Visual Growth Reduction (%) 14 Days After Application, DIGSA
row,SMILES,pest or weed control at 140 g/ha [%]
1,"COC(=O)c1nc(-c2cc(F)c(Br)cc2F)cc(N)c1Cl [Compound 127, methyl 4-amino-6-(4-bromo-2,5-difluorophenyl)-3-chloropicolinate]",95 to 100

# Same assay, conditions: post-emergence, 336 h, ECHCG: barnyardgrass (Echinochloa crus-galli), application rate 70 g ai/ha, read-out: Visual Growth Reduction (%) 14 Days After Application, ECHCG
row,SMILES,pest or weed control at 70 g/ha [%]
1,"COC(=O)c1nc(-c2cc(F)c(Br)cc2F)cc(N)c1Cl [Compound 127, methyl 4-amino-6-(4-bromo-2,5-difluorophenyl)-3-chloropicolinate]",95 to 100

# Same assay, conditions: post-emergence, 336 h, ECHCG: barnyardgrass (Echinochloa crus-galli), application rate 140 g ai/ha, read-out: Visual Growth Reduction (%) 14 Days After Application, ECHCG
row,SMILES,pest or weed control at 140 g/ha [%]
1,"COC(=O)c1nc(-c2cc(F)c(Br)cc2F)cc(N)c1Cl [Compound 127, methyl 4-amino-6-(4-bromo-2,5-difluorophenyl)-3-chloropicolinate]",95 to 100

# Same assay, conditions: post-emergence, 336 h, ORYSA: rice (Oryza sativa), application rate 70 g ai/ha, read-out: Visual Growth Reduction (%) 14 Days After Application, ORYSA
row,SMILES,pest or weed control at 70 g/ha [%]
1,"COC(=O)c1nc(-c2cc(F)c(Br)cc2F)cc(N)c1Cl [Compound 127, methyl 4-amino-6-(4-bromo-2,5-difluorophenyl)-3-chloropicolinate]",0 to 29

# Same assay, conditions: post-emergence, 336 h, ORYSA: rice (Oryza sativa), application rate 140 g ai/ha, read-out: Visual Growth Reduction (%) 14 Days After Application, ORYSA
row,SMILES,pest or weed control at 140 g/ha [%]
1,"COC(=O)c1nc(-c2cc(F)c(Br)cc2F)cc(N)c1Cl [Compound 127, methyl 4-amino-6-(4-bromo-2,5-difluorophenyl)-3-chloropicolinate]",0 to 29

# Same assay, conditions: post-emergence, 336 h, SETFA: giant foxtail (Setaria faberi), application rate 70 g ai/ha, read-out: Visual Growth Reduction (%) 14 Days After Application, SETFA
row,SMILES,pest or weed control at 70 g/ha [%]
1,"COC(=O)c1nc(-c2cc(F)c(Br)cc2F)cc(N)c1Cl [Compound 127, methyl 4-amino-6-(4-bromo-2,5-difluorophenyl)-3-chloropicolinate]",95 to 100

# Same assay, conditions: post-emergence, 336 h, SETFA: giant foxtail (Setaria faberi), application rate 140 g ai/ha, read-out: Visual Growth Reduction (%) 14 Days After Application, SETFA
row,SMILES,pest or weed control at 140 g/ha [%]
1,"COC(=O)c1nc(-c2cc(F)c(Br)cc2F)cc(N)c1Cl [Compound 127, methyl 4-amino-6-(4-bromo-2,5-difluorophenyl)-3-chloropicolinate]",95 to 100

# Same assay, conditions: post-emergence, 336 h, SORVU: grain sorghum (Sorghum vulgare), application rate 70 g ai/ha, read-out: Visual Growth Reduction (%) 14 Days After Application, SORVU
row,SMILES,pest or weed control at 70 g/ha [%]
1,"COC(=O)c1nc(-c2cc(F)c(Br)cc2F)cc(N)c1Cl [Compound 127, methyl 4-amino-6-(4-bromo-2,5-difluorophenyl)-3-chloropicolinate]",95 to 100

# Same assay, conditions: post-emergence, 336 h, SORVU: grain sorghum (Sorghum vulgare), application rate 140 g ai/ha, read-out: Visual Growth Reduction (%) 14 Days After Application, SORVU
row,SMILES,pest or weed control at 140 g/ha [%]
1,"COC(=O)c1nc(-c2cc(F)c(Br)cc2F)cc(N)c1Cl [Compound 127, methyl 4-amino-6-(4-bromo-2,5-difluorophenyl)-3-chloropicolinate]",95 to 100

# Same assay, conditions: post-emergence, 336 h, ZEAMX: maize, corn (Zea mays), application rate 70 g ai/ha, read-out: Visual Growth Reduction (%) 14 Days After Application, ZEAMX
row,SMILES,pest or weed control at 70 g/ha [%]
1,"COC(=O)c1nc(-c2cc(F)c(Br)cc2F)cc(N)c1Cl [Compound 127, methyl 4-amino-6-(4-bromo-2,5-difluorophenyl)-3-chloropicolinate]",85 to 94

# Same assay, conditions: post-emergence, 336 h, ZEAMX: maize, corn (Zea mays), application rate 140 g ai/ha, read-out: Visual Growth Reduction (%) 14 Days After Application, ZEAMX
row,SMILES,pest or weed control at 140 g/ha [%]
1,"COC(=O)c1nc(-c2cc(F)c(Br)cc2F)cc(N)c1Cl [Compound 127, methyl 4-amino-6-(4-bromo-2,5-difluorophenyl)-3-chloropicolinate]",85 to 94
